Assays:
[1] = test system: A2780 cells; assay: In-Vitro Cell Proliferation Assay (SRB); type: cell-based; conditions: Homo sapiens, A2780, 72 h
Procedure, shortened: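 A2780 cells treated 72 h at 37 °C, 5% CO2 with serially diluted compound, 0.1% DMSO final. Viable cells by sulforhodamine B staining after TCA fixation, absorbance 570 nm, background-subtracted for % inhibition and IC50; specificity checked by co-addition of NAM or NMN.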

[2] = biological target: NAMPT (Homo sapiens (Human), UniProt P43490); assay: Biochemical Inhibition Assay (NAMPT enzymatic reaction, NMN by mass spectrometry); conditions: recombinant His-tagged NAMPT 33 nM, 1 μM NAM, 30 minutes; read-out: Biochem IC50
Procedure, shortened: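 His-tagged human NAMPT from E. coli in 50 mM Hepes pH 7.5, 50 mM NaCl, 5 mM MgCl2, 1 mM THP. Product NMN quantified by RapidFire ESI mass spectrometry, normalised to L-cystathionine internal control and background-subtracted; % inhibition converted to IC50.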

[3] = test system: A2780 cells; assay: In Vivo Xenograft Studies; conditions: A2780 xenograft in C.B-17 scid mice, p.o. BID for 5 or 10 days
Experimental: In Vivo Xenograft Studies: […] The compounds were formulated in 60:30:10 PEG-400:D5W: Ethanol and administered p.o., at the dose volume of 10 ml/kg BID for a duration of 5 or 10 days. The dose used for efficacy was selected from the MTD (Maximum Tolerated Dose) study. Mice were weighed and tumors measured using vernier calipers every alternate day. Tumor volume was calculated according to the formula (length×width^2)/2. All animal work was approved by the Institutional Animal Care and Use Committee of Biological Resource Centre, Singapore.

[4] = test system: tumor cell lines; conditions: broad range of tumor cell lines; cited from earlier work
[5] = test system: HepG2 cells; conditions: cited from earlier work
[6] = test system: murine renal cell carcinoma; conditions: cited from earlier work
[7] = test system: THP-1 leukemia cell line; conditions: cited from earlier work
[8] = test system: K562 leukemia cell line; conditions: cited from earlier work
[9] = test system: mouse mammary carcinoma; conditions: mouse mammary carcinoma model; cited from earlier work

Sequence of NAMPT (P43490 whole entry): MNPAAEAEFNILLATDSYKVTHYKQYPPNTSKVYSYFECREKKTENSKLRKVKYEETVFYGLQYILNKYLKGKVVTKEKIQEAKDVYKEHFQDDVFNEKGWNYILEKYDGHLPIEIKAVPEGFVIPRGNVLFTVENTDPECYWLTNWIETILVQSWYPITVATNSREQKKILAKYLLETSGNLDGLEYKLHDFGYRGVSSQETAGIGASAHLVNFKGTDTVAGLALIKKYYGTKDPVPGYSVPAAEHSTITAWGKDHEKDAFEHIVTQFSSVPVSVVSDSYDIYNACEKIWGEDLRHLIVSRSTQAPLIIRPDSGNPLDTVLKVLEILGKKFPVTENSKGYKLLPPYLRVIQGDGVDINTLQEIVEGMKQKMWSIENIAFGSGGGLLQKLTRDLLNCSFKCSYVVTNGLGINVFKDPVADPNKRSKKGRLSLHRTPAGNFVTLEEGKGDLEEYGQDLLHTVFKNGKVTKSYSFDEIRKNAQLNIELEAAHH

## CCOc1ccccc1S(=O)(=O)c1ccc(CNC(=NC#N)Nc2ccncc2)cc1 [2-cyano-1-({4-[(2-ethoxybenzene)sulfonyl]phenyl}methyl)-3-(pyridin-4-yl)guanidine]
[1]
  IC50: 3.5 nM
[2]
  IC50: 7.1 nM
[3]
  effect on tumor growth: delayed tumor growth

## N#C/N=C(\NCCCCCCOc1ccc(Cl)cc1)Nc1ccncc1 [CHS-828]
[4]
  cell growth: potently inhibits cell growth

## O=C(/C=C/c1cccnc1)NCCCCC1CCN(C(=O)c2ccccc2)CC1 [FK866, (E)-N-[4-(1-benzoylpiperidin-4-yl)butyl]-3-(pyridine-3-yl)-acrylamide]
[5]
  apoptosis: induces apoptosis
[6]
  activities in tumor model: anti-tumor, antimetastatic, and anti-angiogenic activities
[7]
  effect on MNNG-induced cell death: chemosensitizing effect
[8]
  effect on MNNG-induced cell death: chemosensitizing effect
[9]
  tumor growth: induces a delay in tumor growth
